Reference: ChEMBL document CHEMBL2434921, “New synthetic aliphatic sulfonamido-quaternary ammonium salts as anticancer chemotherapeutic agents” (2013)
Calls of active or inactive are those of the source. No cut-off for these calls is given here.

Experiments:
[1] = test system: NUGC-3; assay: Growth inhibition of human NUGC3 cells after 48 hrs by SRB assay; type: functional; conditions: NUGC-3, 48 h
[2] = test system: HCT-15; assay: Growth inhibition of human HCT15 cells at 0.1 uM after 48 hrs by SRB assay; values are per cent of control; conditions: HCT-15, 48 h
[3] = test system: NCI-H23; assay: Growth inhibition of human NCI-H23 cells at 1 uM after 48 hrs by SRB assay; values are per cent of control; conditions: NCI-H23, 48 h
[4] = test system: NCI-H23; assay: Growth inhibition of human NCI-H23 cells at 0.1 uM after 48 hrs by SRB assay; values are per cent of control; conditions: NCI-H23, 48 h
[5] = test system: NUGC-3; assay: Growth inhibition of human NUGC3 cells at 10 uM after 48 hrs by SRB assay; values are per cent of control; conditions: NUGC-3, 48 h
[6] = test system: NCI-H23; assay: Growth of human NCI-H23 cells at 0.3 uM after 48 hrs by SRB assay; conditions: NCI-H23, 48 h
[7] = test system: ACHN; assay: Growth inhibition of human ACHN cells at 3 uM after 48 hrs by SRB assay; values are per cent of control
[8] = test system: NCI-H23; assay: Growth of human NCI-H23 cells at 10 uM after 48 hrs by SRB assay; conditions: NCI-H23, 48 h
[9] = test system: MDA-MB-231; assay: Growth of human MDA-MB-231 cells at 1 uM after 48 hrs by SRB assay; conditions: MDA-MB-231, 48 h
[10] = test system: PC-3; assay: Growth inhibition of human PC3 cells after 48 hrs by SRB assay; type: functional; conditions: PC-3, 48 h
[11] = test system: PC-3; assay: Growth of human PC3 cells at 10 uM after 48 hrs by SRB assay; conditions: PC-3, 48 h
[12] = test system: PC-3; assay: Growth inhibition of human PC3 cells at 0.3 uM after 48 hrs by SRB assay; values are per cent of control; conditions: PC-3, 48 h
[13] = test system: ACHN; assay: Growth of human ACHN cells at 0.3 uM after 48 hrs by SRB assay
[14] = test system: NUGC-3; assay: Growth of human NUGC3 cells at 1 uM after 48 hrs by SRB assay; conditions: NUGC-3, 48 h
[15] = test system: HCT-15; assay: Growth inhibition of human HCT15 cells at 10 uM after 48 hrs by SRB assay; values are per cent of control; conditions: HCT-15, 48 h
[16] = test system: PC-3; assay: Growth inhibition of human PC3 cells at 0.1 uM after 48 hrs by SRB assay; values are per cent of control; conditions: PC-3, 48 h
[17] = test system: NUGC-3; assay: Growth of human NUGC3 cells at 0.1 uM after 48 hrs by SRB assay; conditions: NUGC-3, 48 h
[18] = test system: NUGC-3; assay: Growth inhibition of human NUGC3 cells at 3 uM after 48 hrs by SRB assay; values are per cent of control; conditions: NUGC-3, 48 h
[19] = test system: NCI-H23; assay: Growth inhibition of human NCI-H23 cells after 48 hrs by SRB assay; type: functional; conditions: NCI-H23, 48 h
[20] = test system: MDA-MB-231; assay: Growth of human MDA-MB-231 cells at 0.1 uM after 48 hrs by SRB assay; conditions: MDA-MB-231, 48 h
[21] = test system: ACHN; assay: Growth inhibition of human ACHN cells after 48 hrs by SRB assay; type: functional
[22] = test system: PC-3; assay: Growth inhibition of human PC3 cells at 1 uM after 48 hrs by SRB assay; values are per cent of control; conditions: PC-3, 48 h
[23] = test system: MDA-MB-231; assay: Growth of human MDA-MB-231 cells at 10 uM after 48 hrs by SRB assay; conditions: MDA-MB-231, 48 h
[24] = target: Rho-related GTP-binding protein RhoB (Homo sapiens) (UniProt P62745); assay: Transactivation of RhoB (unknown origin) transfected in human HeLa cells at 5 uM measured over 10 secs by dual luciferase reporter gene assay; type: cell-based
Sequence of Rho-related GTP-binding protein RhoB (Homo sapiens) (P62745 whole entry): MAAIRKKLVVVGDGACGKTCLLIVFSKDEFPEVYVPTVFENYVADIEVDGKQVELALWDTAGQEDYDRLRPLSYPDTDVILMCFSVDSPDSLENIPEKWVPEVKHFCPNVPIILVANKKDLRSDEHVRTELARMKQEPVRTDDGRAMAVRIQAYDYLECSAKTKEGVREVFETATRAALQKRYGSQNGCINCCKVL

[25] = test system: HCT-15; assay: Growth of human HCT15 cells at 0.3 uM after 48 hrs by SRB assay; conditions: HCT-15, 48 h
[26] = test system: NCI-H23; assay: Growth inhibition of human NCI-H23 cells at 3 uM after 48 hrs by SRB assay; values are per cent of control; conditions: NCI-H23, 48 h
[27] = test system: HCT-15; assay: Growth inhibition of human HCT15 cells at 1 uM after 48 hrs by SRB assay; values are per cent of control; conditions: HCT-15, 48 h
[28] = test system: HCT-15; assay: Growth inhibition of human HCT15 cells after 48 hrs by SRB assay; type: functional
[29] = test system: PC-3; assay: Growth inhibition of human PC3 cells at 3 uM after 48 hrs by SRB assay; values are per cent of control; conditions: PC-3, 48 h
[30] = test system: ACHN; assay: Growth of human ACHN cells at 0.1 uM after 48 hrs by SRB assay
[31] = test system: ACHN; assay: Growth inhibition of human ACHN cells at 1 uM after 48 hrs by SRB assay; values are per cent of control
[32] = test system: MDA-MB-231; assay: Growth inhibition of human MDA-MB-231 cells at 0.3 uM after 48 hrs by SRB assay; values are per cent of control; conditions: MDA-MB-231, 48 h
[33] = test system: MDA-MB-231; assay: Growth of human MDA-MB-231 cells at 3 uM after 48 hrs by SRB assay; values are per cent of control; conditions: MDA-MB-231, 48 h
[34] = test system: NUGC-3; assay: Growth of human NUGC3 cells at 0.3 uM after 48 hrs by SRB assay; conditions: NUGC-3, 48 h
[35] = test system: ACHN; assay: Growth of human ACHN cells at 10 uM after 48 hrs by SRB assay
[36] = test system: HCT-15; assay: Growth of human HCT15 cells at 3 uM after 48 hrs by SRB assay; conditions: HCT-15, 48 h
[37] = test system: MDA-MB-231; assay: Growth inhibition of human MDA-MB-231 cells after 48 hrs by SRB assay; type: functional; conditions: MDA-MB-231, 48 h

GI50 [10] [nM] | GI50 [19] [nM] | SMILES | GI50 [1] [nM] | growth, % of control at 0.1 µM [2] [%] | growth, % of control at 1 µM [3] [%] | growth, % of control at 0.1 µM [4] [%] | growth, % of control at 10 µM [5] [%] | growth, % of control at 0.3 µM [6] [%] | growth, % of control at 3 µM [7] [%] | growth, % of control at 10 µM [8] [%] | growth, % of control at 1 µM [9] [%] | growth, % of control at 10 µM [11] [%] | growth, % of control at 0.3 µM [12] [%] | growth, % of control at 0.3 µM [13] [%] | growth, % of control at 1 µM [14] [%] | growth, % of control at 10 µM [15] [%] | growth, % of control at 0.1 µM [16] [%] | growth, % of control at 0.1 µM [17] [%] | growth, % of control at 3 µM [18] [%] | growth, % of control at 0.1 µM [20] [%] | further results
460 | 730 | CCCCCCCCCCCCCCS(=O)(=O)NCC(C)(C)C[N+](C)(C)CC | 510 | 112 | 52.9 | 121 | -15.7 | 109 | 60.6 | -4 | 49.9 | -26 | 99.3 | 97.7 | 33.8 | 59.4 | 106 | 110 | 3.9 | 91.2 | GI50 [21]: 2520 nM; growth, % of control at 1 µM [22]: 19.6%; growth, % of control at 10 µM [23]: 12.9%; Activity [24]: Active; growth, % of control at 0.3 µM [25]: 111%; growth, % of control at 3 µM [26]: 28.3%; growth, % of control at 1 µM [27]: 104%; GI50 [28]: inactive; growth, % of control at 3 µM [29]: -11.9%; growth, % of control at 0.1 µM [30]: 101%; growth, % of control at 1 µM [31]: 68.2%; growth, % of control at 0.3 µM [32]: 89.3%; growth, % of control at 3 µM [33]: 32.8%; growth, % of control at 0.3 µM [34]: 107%; growth, % of control at 10 µM [35]: 36.1%; growth, % of control at 3 µM [36]: 91.6%; GI50 [37]: 720 nM
530 | 300 | C=CC[N+](CC)(CC)CCN(C)S(=O)(=O)CCCCCCCCCCCCCC | 210 | 91.8 | 31.1 | 82.2 | -6.4 | 76.5 | 46.6 | -5.7 | 54.3 | 4.6 | 89.8 | 90.5 | 14.3 | 19.2 | 91.5 | 79.1 | -2.9 | 89.6 | GI50 [21]: 1350 nM; growth, % of control at 1 µM [22]: 46.2%; growth, % of control at 10 µM [23]: 14.5%; Activity [24]: Active; growth, % of control at 0.3 µM [25]: 93.9%; growth, % of control at 3 µM [26]: 10%; growth, % of control at 1 µM [27]: 85.1%; GI50 ([28]; HCT-15, 48 h): 2030 nM; growth, % of control at 3 µM [29]: 22.7%; growth, % of control at 0.1 µM [30]: 92.8%; growth, % of control at 1 µM [31]: 73.4%; growth, % of control at 0.3 µM [32]: 87.4%; growth, % of control at 3 µM [33]: 32.2%; growth, % of control at 0.3 µM [34]: 70.5%; growth, % of control at 10 µM [35]: 20.3%; growth, % of control at 3 µM [36]: 62.9%; GI50 [37]: 710 nM
450 | 460 | CCCCCCCCCCCCCCS(=O)(=O)NCCC[N+](C)(C)C [TRIMETHYL-[3-(TETRADECANE-1-SULFONYLAMINO)-PROPYL]-AMMONIUM IODIDE] | 380 | 94.3 | 48.4 | 84.7 | 5.4 | 86.5 | 49.9 | -34.5 | 76.7 | -7.8 | 80.6 | 88.6 | 43.1 | 22 | 86.7 | 84.4 | 21.5 | 84.6 | GI50 [21]: 2040 nM; growth, % of control at 1 µM [22]: 52.2%; growth, % of control at 10 µM [23]: 25.1%; Activity [24]: Active; growth, % of control at 0.3 µM [25]: 91.2%; growth, % of control at 3 µM [26]: -5.1%; growth, % of control at 1 µM [27]: 66.5%; GI50 ([28]; HCT-15, 48 h): 940 nM; growth, % of control at 3 µM [29]: 9.5%; growth, % of control at 0.1 µM [30]: 88%; growth, % of control at 1 µM [31]: 96.8%; growth, % of control at 0.3 µM [32]: 86.4%; growth, % of control at 3 µM [33]: 45.3%; growth, % of control at 0.3 µM [34]: 73.2%; growth, % of control at 10 µM [35]: 29.7%; growth, % of control at 3 µM [36]: 31.5%; GI50 [37]: 1400 nM
